Assays:
[1] = tested on: differentiated L6-myotubes; experiment: Glucose uptake screen (Biological example 1 of WO 2019/053427); assay type: cell-based; settings: compound at 10 μM, activity relative to isoproterenol at 10 μM, read-out: Biological example 1 of WO 2019/053427 (GU)
Method in brief: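 Rat L6 myoblasts were differentiated into myotubes over 7 days in 2% FBS, then serum-starved overnight. Cells were stimulated with 1×10^−5 M compound plus β2 antagonist ICI-118551 for 1 h 40 min and re-dosed for 20 min in glucose-free medium. Uptake of 50 nM ^3H-2-deoxyglucose over 10 min was counted after NaOH lysis.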

[2] = tested on: differentiated L6-myotubes; experiment: cAMP production relative to isoprenaline (Biological example 2 of WO 2019/053427); assay type: cell-based; settings: 0.25 h, compound at 10 μM, activity relative to isoproterenol at 10 μM
Method in brief: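 Differentiated L6 myotubes stimulated 15 min with test compound or isoprenaline, each at final 1×10^−5 M, in HBSS with 1% BSA, 5 mM HEPES, 1 mM IBMX, pH 7.4. cAMP production by the compound expressed relative to that induced by the same concentration of isoprenaline.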

SMILES | Emax at 10 µM [1] [%] | Emax at 10 µM [2] [%]
CO[C@H]1CC[C@H](C[C@H]2CC[C@H]([C@H](O)c3ccccc3F)N2)CC1 [Compound 339, (R)-[(2R,5R)-5-{[(1r,4R)-4-methoxycyclohexyl]methyl}-2-pyrrolidinyl](o-fluorophenyl)methanol] | > 75 | 25 to 50
CS(=O)(=O)N(Cc1ccccc1)CC12CCC([C@@H](O)c3cccc(F)c3)(CC1)N2 [Compound 538, (S)-(4-{[(benzyl)-N-mesylamino]methyl}-7-azabicyclo[2.2.1]hept-1-yl)(m-fluorophenyl)methanol] | 50 to 75 | < 25
CC(C)(C[C@H]1CC[C@H](NC(=O)C(F)(F)F)CC1)NC[C@H](O)c1cccc(F)c1 [Compound 433, N-[(1R,4r)-4-{2-[(R)-2-(m-fluorophenyl)-2-hydroxyethylamino]-2-methylpropyl}cyclohexyl]trifluoroacetamide] | > 75 | 25 to 50
CC1(C)CC[C@H]([C@@H](O)c2cccc(Cl)c2)N1 [Compound 153, (S)-[(R)-5,5-dimethyl-2-pyrrolidinyl](m-chlorophenyl)methanol] | 25 to 50 | < 25
CCCS(=O)(=O)N[C@H]1CC[C@H](CC(C)(C)NC[C@H](O)c2cccc(F)c2)CC1 [Compound 451, (R)-2-{1,1-dimethyl-2-[(1r,4R)-4-(propylsulfonylamino)cyclohexyl]ethylamino}-1-(m-fluorophenyl)-1-ethanol] | 50 to 75 | 25 to 50
CCC[C@@H]1CCC[C@H]([C@H](O)c2ccccc2F)N1 [Compound 97, (R)-[(2R,6R)-6-propyl-2-piperidyl](o-fluorophenyl)methanol] | 50 to 75 | < 25
CC(C)(C[C@H]1CC[C@@H](NS(C)(=O)=O)CC1)NC[C@@H](O)c1cccc(C#N)n1 [Compound 424, 6-[(R)-2-{1,1-dimethyl-2-[(1s,4S)-4-(mesylamino)cyclohexyl]ethylamino}-1-hydroxyethyl]-2-pyridinecarbonitrile] | 25 to 50 | < 25
CCCCNC[C@H](O)c1cnc(N)nc1 [Compound 89, (R)-1-(2-amino-5-pyrimidinyl)-2-(butylamino)-1-ethanol] | 50 to 75 | < 25
O[C@@H](CNCC[C@H]1CC[C@@H](O)CC1)c1cccc(F)c1 [Compound 297, (R)-1-(m-fluorophenyl)-2-{2-[(1s,4S)-4-hydroxycyclohexyl]ethylamino}-1-ethanol] | 50 to 75 | < 25
CCC[C@H]1CCC[C@H]([C@@H](O)c2cccc(O)c2)N1 [Compound 155, (S)-[(2R,6S)-6-propyl-2-piperidyl](m-hydroxyphenyl)methanol] | < 25 | < 25
CCC[C@H]1CCC[C@@H]([C@H](O)c2cccc(Cl)c2)N1 [Compound 123, (R)-[(2S,6S)-6-propyl-2-piperidyl](m-chlorophenyl)methanol] | 25 to 50 | < 25
Cc1ncccc1[C@@H](O)CNC(C)(C)C [Compound 376, (R)-2-(tert-butylamino)-1-(2-methyl-3-pyridyl)-1-ethanol] | > 75 | 25 to 50
CCCCNC[C@H](O)c1ccc(F)c(O)c1 [Compound 85, (R)-2-(butylamino)-1-(4-fluoro-3-hydroxyphenyl)-1-ethanol] | > 75 | < 25
CCCCCCCCNCC(O)c1ccc(O)cc1 (stereo not drawn) [Compound 18, 1-(p-hydroxyphenyl)-2-(octylamino)-1-ethanol] | 25 to 50 | < 25
CCC[C@H]1CCC[C@H]([C@H](O)c2cccc(F)c2)N1 [Compound 69, (R)-[(2R,6S)-6-propyl-2-piperidyl](m-fluorophenyl)methanol] | 50 to 75 | < 25
CC1(C)CC[C@@H]([C@H](O)c2cccc(O)c2)N1 [Compound 142, m-{(R)-[(S)-5,5-dimethyl-2-pyrrolidinyl]hydroxymeth-yl}phenol] | 25 to 50 | < 25
CC(C)(C[C@H]1CC[C@@H](N)CC1)NC[C@@H](O)c1cccc(C#N)n1 [Compound 416, 6-[(R)-2-{1,1-dimethyl-2-[(1s,4S)-4-aminocyclohexyl]ethylamino}-1-hydroxyethyl]-2-pyridinecarbonitrile] | 50 to 75 | < 25
Oc1ccc(C(O)CNCCC2CC2)cc1 (stereo not drawn) [Compound 24, p-[2-(2-cyclopropylethylamino)-1-hydroxyethyl]phenol] | 50 to 75 | < 25

SMILES | Emax at 10 µM [1] [%] | Emax at 10 µM [2] [%]
CC1(NC[C@H](O)c2cccc(F)c2)CCC1 [Compound 83, (R)-1-(m-fluorophenyl)-2-(1-methylcyclobutylamino)-1-ethanol] | > 75 | 25 to 50
COc1ccc(CCC23CCC([C@@H](O)c4cccc(F)c4)(CC2)N3)cc1 [Compound 539, (S)-(m-fluorophenyl){4-[2-(p-methoxyphenyl)ethyl]-7-azabicyclo[2.2.1]hept-1-yl}methanol] | < 25 | < 25
COC(=O)[C@H]1CC[C@@H](CC(C)(C)NC[C@H](O)c2cccc(F)c2)CC1 [Compound 327, methyl (1S,4s)-4-{2-[(R)-2-(m-fluorophenyl)-2-hydroxyethylamino]-2-methylpropyl}cyclohexanecarboxylate] | > 75 | < 25
CN(C)C(=O)N[C@H]1CC[C@H](CC(C)(C)NC[C@H](O)c2cccc(F)c2)CC1 [Compound 430, (R)-2-{1,1-dimethyl-2-[(1r,4R)-4-(3,3-dimethylureido)cyclohexyl]ethylamino}-1-(m-fluorophenyl)-1-ethanol] | > 75 | 50 to 75
CCCCNC[C@H](O)c1ccnc(N)n1 [Compound 73, (S)-1-(2-amino-4-pyrimidinyl)-2-(butylamino)-1-ethanol] | 25 to 50 | < 25
CCCCNCC(O)c1cc(O)cc(O)c1 (stereo not drawn) [Compound 26, 5-[2-(butylamino)-1-hydroxyethyl]resorcinol] | 50 to 75 | < 25
O[C@@H](CNC[C@H]1CC[C@@H](O)CC1)c1cccc(F)c1 [Compound 268, (R)-1-(m-fluorophenyl)-2-({[(1s,4S)-4-hydroxycyclohexyl]meth-yl}amino)-1-ethanol] | 25 to 50 | < 25
CCC[C@@H]1CC[C@H]([C@H](O)c2cccc(F)c2)N1 [Compound 58, (R)-[(2R,5R)-5-propyl-2-pyrrolidinyl](m-fluorophenyl)methanol] | > 75 | 25 to 50
CC(C)(C[C@H]1CC[C@@H](N)CC1)NC[C@H](O)c1cccc(F)c1 [Compound 456, (R)-2-{1,1-dimethyl-2-[(1s,4S)-4-aminocyclohexyl]ethylamino}-1-(m-fluorophenyl)-1-ethanol] | > 75 | < 25
CC(=O)N[C@H]1CC[C@H](C[C@@H]2CC[C@H]([C@@H](O)c3cccc(F)c3)N2)CC1 [Compound 486, N-[(1S,4r)-4-({(2S,5R)-5-[(S)-(m-fluorophenyl)hydroxymethyl]-2-pyrrolidinyl}methyl)cyclohexyl]acetamide] | 50 to 75 | < 25
CC1(NC[C@H](O)c2cccc(F)c2)CC1 [Compound 82, (R)-1-(m-fluorophenyl)-2-(1-methylcyclopropylamino)-1-ethanol] | > 75 | < 25
CCC[C@H]1CCC[C@H]([C@H](O)c2ccc(F)cc2)N1 [Compound 92, (R)-[(2R,6S)-6-propyl-2-piperidyl](p-fluorophenyl)methanol] | 25 to 50 | < 25
CCC[C@H]1CCC[C@H]([C@H](O)c2ccccc2Cl)N1 [Compound 135, (R)-[(2R,6S)-6-propyl-2-piperidyl](o-chlorophenyl)methanol] | 25 to 50 | < 25
CC(C)(CC[C@H]1CC[C@H](C(=O)O)CC1)NC[C@H](O)c1cccc(F)c1 [Compound 348, (1R,4r)-4-{3-[(R)-2-(m-fluorophenyl)-2-hydroxyethylamino]-3-methylbutyl}cyclohexanecarboxylic acid] | < 25 | < 25
CCCS(=O)(=O)N[C@H]1CC[C@@H](CC(C)(C)NC[C@H](O)c2cncc(F)c2)CC1 [Compound 523, (R)-2-{1,1-dimethyl-2-[(1s,4S)-4-(propylsulfonylamin)cyclohexyl]ethylamino}-1-(5-fluoro-3-pyridyl)-1-ethanol] | 50 to 75 | < 25
CO[C@H]1CC[C@H](CCNC[C@H](O)c2cncc(F)c2)CC1 [Compound 225, (R)-1-(5-fluoro-3-pyridyl)-2-{2-[(1r,4R)-4-methoxycyclohexyl]ethyl-amino}-1-ethanol] | 50 to 75 | < 25
CC(=O)N(C)[C@H]1CC[C@@H](CC(C)(C)NC[C@H](O)c2cncc(F)c2)CC1 [Compound 507, N-[(1S,4s)-4-{2-[(R)-2-(5-fluoro-3-pyridyl)-2-hdyroxyethylamino]-2-methylpropyl}cyclohexyl]-n-methylacetamide] | 50 to 75 | < 25
CCC[C@H]1CCC[C@@H]([C@@H](O)c2cccc(F)c2)N1 [Compound 119, (S)-[(2S,6S)-6-propyl-2-piperidyl](m-fluorophenyl)methanol] | 25 to 50 | < 25

Reference: patent publication US20260256751A1, “COMBINATION OF BETA-2-ADRENERGIC RECEPTOR AGONISTS AND GLP-1 RECEPTOR AGONISTS FOR USE IN TREATING HYPERGLYCAEMIA” (ATROGI AB, priority 2023, published 2026)
